According to PMC9102953, “New Derivatives of 5-Substituted Uracils: Potential Agents with a Wide Spectrum of Biological Activity” (Molecules, 2022):
Like-named read-outs stand apart in the source and are kept apart here.

How the values were obtained:
[1] = test system: HCoV-OC43; experiment: Antiviral cytopathicity assay, HCoV-OC43 in HEL 299 cells; format: cell-based
[2] = test system: respiratory syncytial virus (RSV) strain A Long; experiment: microbe, parasite or virus in culture; format: cell-based; conditions: for EC50: human respiratory syncytial virus, HEL 299, read-out: EC50 (μM) RSV A Long, HEL 299
[3] = test system: yellow fever virus (YFV) strain 17 D; experiment: microbe, parasite or virus in culture; format: cell-based; conditions: for EC50: Yellow fever virus, Huh-7, read-out: EC50 (μM) YFV 17D, Huh7
[4] = in vitro; conditions: human
[5] = in vitro; conditions: human; remark: listed apart in the source
[6] = in vitro; conditions: dog
[7] = test system: a variety of RNA viruses; format: cell-based
[8] = test system: HEL299, Huh 7 and MDCK cells
[9] = Betacoronavirus 1, OC43, HEL 299, read-out: EC50 (μM) HCoV-OC43, HEL 299
[10] = Betacoronavirus 1, OC43, HEL 299 cells, reduction of virus-induced cytopathicity by 50%, read-out: EC50 (μM) HCoV-OC43, HEL 299

SMILES | melting point | EC50 [1, 9] | EC50 [2] | EC50 [3] | CC50 [4] | CC50 [5] | CC50 [6] | antiviral activity in the screening (in words) [7] | cytotoxicity in the tested cell lines (in words) [8] | biological activity against HCoV OC43 (in words) [1] | inhibition of respiratory syncytial virus RSV (strain A Long) (in words) [2] | activity against yellow fever virus YFV (strain 17D) (in words) [3] | EC50 [1, 10]
O=c1[nH]cc(N2CCc3ccccc3C2)c(=O)[nH]1 | 311 to 312 °C | – | – | – | – | – | – | – | – | – | – | – | –
O=c1[nH]c(=O)n(C2C=CC(O)C2)cc1N1CCCCCC1 (racemic) [(±)-3a, (±)-1-(4′-Hydroxycyclopent-2′-en-1′-yl)-5-(azepan-1″-yl)uracil] | – | > 100 µM | > 100 µM | > 100 µM | > 100 µM | > 100 µM | > 100 µM | – | – | – | – | – | –
O=c1[nH]c(=O)n(C2C=CC(O)C2)cc1N1CCN(c2ccccc2)CC1 (racemic) [(±)-3b, (±)-1-(4′-Hydroxycyclopent-2′-en-1′-yl)-5-(4″-phenylpiperazin-1″-yl)uracil] | – | > 100 µM | > 100 µM | > 100 µM | > 100 µM | > 100 µM | > 100 µM | – | – | – | – | – | –
CCCCCCc1ccc(Nc2cn(C3C=CC(O)C3)c(=O)[nH]c2=O)cc1 (racemic) [(±)-3d, (±)-1-(4′-Hydroxycyclopent-2′-en-1′-yl)-5-((4′-hexylphenyl)amino)uracil] | – | > 100 µM | > 100 µM | > 100 µM | – | – | 30 µM | did not show any activity | marked cytotoxicity | – | – | – | –
CC(C)(C)c1ccc(Nc2cn(C3C=CC(O)C3)c(=O)[nH]c2=O)cc1 (racemic) [(±)-3e, (±)-1-(4′-Hydroxycyclopent-2′-en-1′-yl)-5-((4″-tert-butyl)phenylamino)uracil] | – | > 100 µM | > 100 µM | > 100 µM | > 100 µM | > 100 µM | 63 µM | did not show any activity | marked cytotoxicity | – | – | – | –
CCCCCCCc1ccc(Nc2cn(C3C=CC(O)C3)c(=O)[nH]c2=O)cc1 (racemic) [(±)-3f, (±)-4′-Hydroxycyclopent-2′-en-1′-yl)-5-((4′′-heptylphenyl)amino)uracil] | – | 22.4 µM | > 100 µM | > 100 µM | > 100 µM | > 100 µM | 70.4 µM | – | – | moderate biological activity | – | – | –
CC(C)c1ccc(Nc2cn(C3C=CC(O)C3)c(=O)[nH]c2=O)cc1 (racemic) [(±)-3g, (±)-1-(4′-Hydroxycyclopent-2′-en-1′-yl)-5-((4″-isopropylphenyl)amino)uracil] | – | > 100 µM | > 100 µM | > 100 µM | > 100 µM | > 100 µM | > 100 µM | – | – | – | – | – | –
CCCCCCCOc1ccc(Nc2cn(C3C=CC(O)C3)c(=O)[nH]c2=O)cc1 (racemic) [(±)-3i, (±)-1-(4′-Hydroxycyclopent-2′-en-1′-yl)-5-((4″-(heptyloxy)phenyl)amino)uracil] | – | 36.8 µM | > 100 µM | > 100 µM | – | – | 34 µM | – | – | moderate biological activity | – | – | –
O=c1c(N2CCCCCC2)cn(C2C=CC(O)C2)c(=O)n1C1C=CC(O)C1 (racemic) [(±)-4a, (±)-1-(4′-hydroxycyclopent-2′-en-1′-yl)-3-(4‴-hydroxycyclopent-2‴-en-1‴-yl)-5-(azepan-1″-yl)uracil] | – | > 100 µM | > 100 µM | > 100 µM | > 100 µM | > 100 µM | > 100 µM | – | – | – | – | – | –
O=c1c(N2CCN(c3ccccc3)CC2)cn(C2C=CC(O)C2)c(=O)n1C1C=CC(O)C1 (racemic) [(±)-4b, (±)-1-(4′-hydroxycyclopent-2′-en-1′-yl)-3-(4‴-hydroxycyclopent-2‴-en-1‴-yl)-5-(4″-phenylpiperazin-1″-yl)uracil] | – | > 100 µM | > 100 µM | > 100 µM | > 100 µM | > 100 µM | > 100 µM | – | – | – | – | – | –
CCCCCCc1ccc(Nc2cn(C3C=CC(O)C3)c(=O)n(C3C=CC(O)C3)c2=O)cc1 (racemic) [(±)-4d, (±)-1-(4′-hydroxycyclopent-2′-en-1′-yl)-3-(4‴-hydroxycyclopent-2‴-en-1‴-yl)-5-(-((4″-hexylphenyl)amino)uracil] | – | 28.7 µM | > 100 µM | > 100 µM | > 100 µM | > 100 µM | 51.2 µM | – | – | moderate biological activity | – | – | –
CCCCCCCc1ccc(Nc2cn(C3C=CC(O)C3)c(=O)n(C3C=CC(O)C3)c2=O)cc1 (racemic) [(±)-4f, (±)-1-(4′-hydroxycyclopent-2′-en-1′-yl)-3-(4‴-hydroxycyclopent-2‴-en-1‴-yl)-5-(-((4″-heptylphenyl)amino)uracil] | – | > 100 µM | > 100 µM | > 100 µM | > 100 µM | > 100 µM | > 100 µM | – | – | – | – | – | –
CCCCOc1ccc(Oc2cn(C3C=CC(O)C3)c(=O)[nH]c2=O)cc1 (racemic) [(±)-10b, (±)-1-(4′-Hydroxycyclopent-2′-en-1′-yl)-5-(4″-butoxyphenoxy)uracil] | – | > 100 µM | > 100 µM | > 100 µM | > 100 µM | > 100 µM | > 100 µM | – | – | – | – | – | –
O=c1[nH]c(=O)n(C2C=CC(O)C2)cc1Oc1ccc(Cl)cc1 (racemic) [(±)-10c, (±)-1-(4′-Hydroxycyclopent-2′-en-1′-yl)-5-(4″-chlorophenoxy)uracil] | – | > 100 µM | > 100 µM | > 100 µM | > 100 µM | > 100 µM | > 100 µM | – | – | – | – | – | –
CC(C)(C)c1ccc(Oc2cn(C3C=CC(O)C3)c(=O)[nH]c2=O)cc1 (racemic) [(±)-10d, (±)-1-(4′-Hydroxycyclopent-2′-en-1′-yl)-5-(4″-(tert-butyl)phenoxy)uracil] | – | > 100 µM | > 100 µM | > 100 µM | > 100 µM | > 100 µM | > 100 µM | – | – | – | – | – | –
Cc1cc(C)cc(Oc2cn(C3C=CC(O)C3)c(=O)n(C3C=CC(O)C3)c2=O)c1 (racemic) [(±)-11a, (±)-1-(4′-hydroxycyclopent-2′-en-1′-yl)-3-(4‴-hydroxycyclopent-2‴-en-1‴-yl)-5-(3″,5″-dimethylphenoxy)uracil] | – | 29.8 µM | 28.7 µM | > 100 µM | – | – | 39.3 µM | – | – | moderate biological activity | inhibited | – | –
CC(C)(C)c1ccc(Oc2cn(C3C=CC(O)C3)c(=O)n(C3C=CC(O)C3)c2=O)cc1 (racemic) [(±)-11d, (±)-1-(4′-hydroxycyclopent-2′-en-1′-yl)-3-(4‴-hydroxycyclopent-2‴-en-1‴-yl)-5-(4″-(tert-butyl)phenoxy)uracil] | – | > 100 µM | > 100 µM | 47.9 µM | – | – | 40.3 µM | – | – | – | – | demonstrated activity | –
O=c1[nH]cc(N2CCCCCC2)c(=O)[nH]1 [Compound 2a, 5-(Azepan-1-yl)uracil] | – | – | > 100 µM | > 100 µM | > 100 µM | > 100 µM | > 100 µM | – | – | – | – | – | > 100 µM
O=c1[nH]cc(N2CCN(c3ccccc3)CC2)c(=O)[nH]1 [Compound 2b, 5-(4-Phenylpiperazin-1-yl)uracil] | 352 to 354.5 °C | – | > 100 µM | > 100 µM | > 100 µM | > 100 µM | > 100 µM | – | – | – | – | – | > 100 µM
CCCCCCc1ccc(Nc2c[nH]c(=O)[nH]c2=O)cc1 [Compound 2d, 5-((4′-Hexylphenyl)amino)uracil] | 332 to 333 °C | – | > 100 µM | > 100 µM | > 100 µM | > 100 µM | > 100 µM | – | – | – | – | – | > 100 µM
CC(C)(C)c1ccc(Nc2c[nH]c(=O)[nH]c2=O)cc1 [Compound 2e, 5-((4′-tert-Butylphenyl)amino)uracil] | 354.5 to 356.5 °C | – | > 100 µM | > 100 µM | > 100 µM | > 100 µM | > 100 µM | – | – | – | – | – | > 100 µM
Cc1cc(C)cc(Oc2c[nH]c(=O)[nH]c2=O)c1 [Compound 5a, 5-(3,5-Dimethylphenoxy)uracil] | 293 to 295 °C | – | > 100 µM | > 100 µM | > 100 µM | > 100 µM | > 100 µM | – | – | – | – | – | > 100 µM
CCCCOc1ccc(Oc2c[nH]c(=O)[nH]c2=O)cc1 [Compound 5b, 5-(4-Butoxyphenoxy)uracil] | 271 to 274 °C | – | > 100 µM | > 100 µM | > 100 µM | > 100 µM | > 100 µM | – | – | – | – | – | > 100 µM
O=c1[nH]cc(Oc2ccc(Cl)cc2)c(=O)[nH]1 [Compound 5c, 5-(4-Chlorophenoxy)uracil] | 331 to 333 °C | – | > 100 µM | > 100 µM | > 100 µM | > 100 µM | > 100 µM | – | – | – | – | – | > 100 µM
CC(C)(C)c1ccc(Oc2c[nH]c(=O)[nH]c2=O)cc1 [Compound 5d, 5-(4-tert-Butylphenoxy)uracil] | 273 to 275 °C | – | > 100 µM | > 100 µM | > 100 µM | > 100 µM | > 100 µM | – | – | – | – | – | > 100 µM
CCC(CC)COC(=O)[C@H](C)N[P@](=O)(OC[C@H]1O[C@@](C#N)(c2ccc3c(N)ncnn23)[C@H](O)[C@@H]1O)Oc1ccccc1 [Remdesivir, reference compound] | – | 0.03 µM | 0.01 µM | – | > 10 µM | > 10 µM | – | – | – | – | – | – | –
